The values below come from patent US20030212014A1 (priority 2000, published 2003).

SMILES strings stand for the structures. Where two headings read alike, the source gives them in different places.

Series [1] has as its system human and bovine retinal pericytes. The series is described as follows: Palmitate-induced apoptosis in retinal pericytes (TUNEL staining). Format: cell-based. Here is the method: Apoptosis was induced by incubating the cells with a medium containing 0-0.5 mM palmitic acid for 3 days. Apoptotic cells were determined by conventional TUNEL staining. Ceramide and DAG levels were measured the by diacylgycerol kinase method using 32P-ATP.

Series [2] has as its system rats. The series is described as follows: Acute effects of AICAR on blood and plasma metabolites and hormones in rats. Format: in vivo, rat.
Series [3] deals with rats. The note with it: cited from earlier work.

As to `NC(=O)c1ncn([C@@H]2O[C@H](CO)[C@@H](O)[C@H]2O)c1N` [AICAR, 5-aminoimidizole-4-carboxamide riboside], in series [1] (0.5 mM palmitate + 1 mM AICAR, 3 days), the “apoptotic cells (TUNEL)” value amounted to 10±2%. The same compound came in with a decrease in apoptosis in series [1] (1 mM AICAR vs 0.5 mM palmitate alone) of 50%. Further, the blood glucose levels entry in series [2] (250 mg/kg, 2-6 hours following administration) is “moderately diminished”. Moreover, in series [2] (acute, high doses), the blood lactate entry was “increase” and the “plasma free fatty acid (FFA) levels” value is on record as “decrease”. For the same compound, in series [2] (all doses studied, at 2 hrs), the plasma leptin result was “did not significantly alter” and the plasma triglycerides entry is “did not significantly alter”. Also, in series [3] (500 mg/kg/twice daily, control and diabetic rats (U.S. Pat. No. 5,658,889)), the blood glucose levels result is recorded as “lowers”. Also, the liver size result in series [3] (1000 mg/kg body weight daily for 28 days (Winder)) is “hepatic enlargement”. Also, in series [3] (1000 mg/kg/day for 28 days (Winder et al.)), the muscle glycogen entry is reported as “increased”.
